Results from US10639298B2 (Biohaven Pharmaceutical Holding Company Ltd., priority 2015, dated 2020).
Read-outs that look alike come from different tables or passages of the source.

How the values were obtained:
[1] = Rat pharmacokinetic studies of prodrug and released riluzole (IV or oral); type: in vivo, Sprague-Dawley rats; conditions: rat, plasma, fasted male Sprague Dawley rats; for clearance: read-out: Compound of the disclosure Cl (converted); for Vd: read-out: Compound of the disclosure Vss; for half-life: read-out: Compound of the disclosure t1/2 (converted)
Procedure: Rat Pharmacokinetic Studies of the Compounds of the Disclosure:
Blood samples were collected at pre-determined time points including a 0 h time point and usually between 7 and 8 additional time points not exceeding a 24 h period.
Plasma samples were extracted and analyzed using the methods described in Plasma Sample Extraction and Analysis. All data are expressed as ng/mL of the free base. Samples that were below the limit of quantification (0.5 ng/mL) were not used in the calculation of averages.
Pharmacokinetic parameters were calculated from the time course of the plasmaconcentrations. Pharmacokinetic parameters were determined with Phoenix Winnonlin (v6.3) software using a non-compartmental model. The maximum plasma concentration (Cmax) and time to the maximum plasma concentration (Tmax) of the compound of the disclosure were observed from the data. The area under the concentration-time curve (AUC) of the compound of the disclosure was calculated using the trapezoidal formula with calculation to the last quantifiable data point, and to infinity if applicable. Plasma half-life (t½) was calculated from 0.693/slope of the terminal elimination phase. Mean residence time, MRT, was calculated by dividing the area under the moment curve (AUMC) by the AUC. Any samples below the limit of quantitation (0.5 ng/mL) were treated as zero for pharmacokinetic data analysis.
Plasma Sample Extraction and Analysis:
Analytical stock solutions (1.00 mg/mL of the free compound of the disclosure) were prepared in DMSO. Standards were prepared in diluted matrix containing 1 part 10% formic acid and 9 parts Sprague-Dawley rat plasma containing sodium heparin as the anticoagulant (pre-diluted with 1 part of 0.5M citric acid and 9 parts whole blood). Working solutions were prepared in 50:50 acetonitrile:water. Working solutions were then added to plasma to make calibration standards to final concentrations of 1000, 500, 100, 50, 10, 5, 1, and 0.5 ng/mL. Standards contained both the test article and riluzole. Standards were treated identically to the study samples.
Plasma samples were extracted via acetonitrile precipitation on a Tomtec Quadra 96-Model 320 liquid handling system in a 96-well plate format.

[2] = PK in fasted male mice, prodrug and released riluzole (IV, PO); conditions: mouse, in vivo; for AUC(0-t): read-out: Prodrug AUClast (Mean)
[3] = tested on: Stage III and IV melanoma; conditions: 14 days of treatment, cited from earlier work
[4] = IV, prodrug dose 2.8 mg/Kg, read-out: Compound of the disclosure AUClast
[5] = PO 5 mg/kg, read-out: Prodrug AUClast (Mean)

SMILES	AUC(0-t) [1, 4] [ng·h/mL]	clearance ([1]; IV, prodrug dose 2.8 mg/Kg) [mL/min/kg]	Vd ([1]; IV, prodrug dose 2.8 mg/Kg) [L/kg]	half-life ([1]; IV, prodrug dose 2.8 mg/Kg) [h]	further results
CCNCC(=O)N1CCC[C@@H]1C(=O)Nc1nc2ccc(OC(F)(F)F)cc2s1 [Example 52, (R)-1-N-ethylglycinyl-N-(6-(trifluoromethoxy)benzo [d]thiazol-2-yl) pyrrolidine-2-carboxamide]	3620	9	3.55	4.75	
CC(C)(CN)C(=O)N1CCC[C@H]1C(=O)Nc1nc2ccc(OC(F)(F)F)cc2s1 [Example 59, (S)-1-(3-amino-2,2-dimethylpropanoyl)-N-(6-(trifluoromethoxy)benzo[d]thiazol-2-yl)pyrrolidine-2-carboxamide]	2770	10.7	5.11	6.2	
NCC(=O)NC1(C(=O)Nc2nc3ccc(OC(F)(F)F)cc3s2)CCC1 [Example 82, 1-(2-aminoacetamido)-N-(6-(trifluoromethoxy)benzo[d]thiazol-2-yl)cyclobutane-1-carboxamide]	663	71.3	4.14	1.03	
CNCC(=O)NC1(C(=O)Nc2nc3ccc(OC(F)(F)F)cc3s2)CCC1 [Example 83, 1-(2-(methylamino)acetamido)-N-(6-(trifluoromethoxy)benzo[d]thiazol-2-yl)cyclobutane-1-carboxamide]					AUC(0-t) ([1]; IV, prodrug dose 1.8 mg/Kg, read-out: Compound of the disclosure AUClast): 1720 ng·h/mL; clearance ([1]; IV, prodrug dose 1.8 mg/Kg): 11.3 mL/min/kg; Vd ([1]; IV, prodrug dose 1.8 mg/Kg): 5.06 L/kg; half-life ([1]; IV, prodrug dose 1.8 mg/Kg): 5.56 h
CNCC(=O)NC(C)(C)C(=O)Nc1nc2ccc(OC(F)(F)F)cc2s1 [Example 111, 2-methyl-2-(2-(methylamino)acetamido)-N-(6-(trifluoromethoxy)benzo[d]thiazol-2-yl)propanamide]	4650	5.75	3.19	6.51	
CC(C)NCC(=O)NC(C)(C)C(=O)Nc1nc2ccc(OC(F)(F)F)cc2s1 [Example 113, 2-(2-(isopropylamino)acetamido)-2-methyl-N-(6-(trifluoromethoxy)benzo[d]thiazol-2-yl)propanamide]	2760	11.5	4.88	5.45	
CN(CC(=O)Nc1nc2ccc(OC(F)(F)F)cc2s1)C(=O)C(C)(C)CN [Example 118, 3-Amino-N,2,2-trimethyl-N-(2-oxo-2-((6-(trifluoromethoxy)benzo[d]thiazol-2-yl)amino)ethyl)propanamide]	2480	18.8	3.35	10.4	
CN(CC(=O)Nc1nc2ccc(OC(F)(F)F)cc2s1)C(=O)C1(CN)CC1 [Example 119, 1-(aminomethyl)-N-methyl-N-(2-oxo-2-((6-(trifluoromethoxy)benzo[d]thiazol-2-yl)amino)ethyl)cyclopropane-1-carboxamide]	1720	27.2	4.7	9.3	
CN(CC(=O)Nc1nc2ccc(OC(F)(F)F)cc2s1)C(=O)C1(CN)CCCC1 [Example 120, 1-(aminomethyl)-N-methyl-N-(2-oxo-2-((6-(trifluoromethoxy)benzo[d]thiazol-2-yl)amino)ethyl)cyclopentane-1-carboxamide]	2460	19	3.63	8.66	
CN(CC(=O)Nc1nc2ccc(OC(F)(F)F)cc2s1)C(=O)C1(CN)CCCCC1 [Example 121, 1-(aminomethyl)-N-methyl-N-(2-oxo-2-((6-(trifluoromethoxy)benzo[d]thiazol-2-yl)amino)ethyl)cyclohexane-1-carboxamide]	1290	36.3	6.15	4.83	
CNCC(=O)N(C)CC(=O)Nc1nc2ccc(OC(F)(F)F)cc2s1 [Example 122, N-methyl-2-(methylamino)-N-(2-oxo-2-((6-(trifluoromethoxy)benzo[d]thiazol-2-yl)amino)ethyl)acetamide]	219	66.3	0.861	0.28	
CCNCC(=O)N(C)CC(=O)Nc1nc2ccc(OC(F)(F)F)cc2s1 [Example 123, 2-(ethylamino)-N-methyl-N-(2-oxo-2-((6-(trifluoromethoxy)benzo[d]thiazol-2-yl)amino)ethyl)acetamide]	787	59	2.04	0.68	
CC(C)NCC(=O)N(C)CC(=O)Nc1nc2ccc(OC(F)(F)F)cc2s1 [Example 124, 2-(isopropylamino)-N-methyl-N-(2-oxo-2-((6-(trifluoromethoxy)benzo[d]thiazol-2-yl)amino)ethyl)acetamide]	580	81.2	2.67	0.63	
NCC1(C(=O)N2CCC[C@@H]2C(=O)Nc2nc3ccc(OC(F)(F)F)cc3s2)CCCCC1 [Example 173, (R)-1-(1-(aminomethyl)cyclohexane-1-carbonyl)-N-(6-(trifluoromethoxy)benzo[d]thiazol-2-yl)pyrrolidine-2-carboxamide]	1440	22.3	9.66	6.7	
CN(CC(=O)Nc1nc2ccc(OC(F)(F)F)cc2s1)C(=O)CNC(=O)CN [Example 204, 2-Amino-N-{[methyl({[6-(trifluoromethoxy)-1,3-benzothiazol-2-yl]carbamoyl}methyl)carbamoyl]methyl}acetamide]	232	220	2.47	0.237	AUC(0-inf) ([2]; IV 1 mg/kg, read-out: Prodrug AUCinf (Mean)): 533 ng·h/mL; AUC(0-t) ([2]; IV 1 mg/kg): 532 ng·h/mL; clearance ([2]; IV 1 mg/kg, read-out: Prodrug CL (Mean) (converted)): 32.3 mL/min/kg; half-life ([2]; IV 1 mg/kg, read-out: Prodrug T1/2 (Mean) (converted)): 0.29 h; Vd ([2]; IV 1 mg/kg, read-out: Prodrug Vss (Mean)): 0.46 L/kg; Cmax ([2]; PO 5 mg/kg): 4.71 ng/mL; Tmax ([2]; PO 5 mg/kg): 0.33 h; AUC(0-t) ([2]; PO 5 mg/kg): 3.85 ng·h/mL; Cmax ([1]; PO 5 mg/kg): 1.84 ng/mL; Tmax ([1]; PO 5 mg/kg): 0.28 h; AUC(0-t) [1, 5]: 0.9 ng·h/mL
CN(CC(=O)Nc1nc2ccc(OC(F)(F)F)cc2s1)C(=O)CNC1CNC1 [Example 212, 2-[(Azetidin-3-yl)amino]-N-methyl-N-({[6-(trifluoromethoxy)-1,3-benzothiazol-2-yl]carbamoyl}methyl)acetamide]					AUC(0-t) ([1]; IV, prodrug dose 1.4 mg/Kg, read-out: Compound of the disclosure AUClast): 218 ng·h/mL; clearance ([1]; IV, prodrug dose 1.4 mg/Kg): 104 mL/min/kg; Vd ([1]; IV, prodrug dose 1.4 mg/Kg): 6.21 L/kg; half-life ([1]; IV, prodrug dose 1.4 mg/Kg): 2.43 h
CN(CC(=O)Nc1nc2ccc(OC(F)(F)F)cc2s1)C(=O)CNC1CCNCC1 [Example 216, N-Bethyl-2-[(piperidin-4-yl)amino]-N-({[6-(trifluoromethoxy)-1,3-benzothiazol-2-yl]carbamoyl}methyl)acetamide]	1910	23	2.53	3.98	Cmax ([1]; PO 5 mg/kg): 2.96 ng/mL; Tmax ([1]; PO 5 mg/kg): 2.17 h; AUC(0-t) [1, 5]: 16.6 ng·h/mL
CN(CC(=O)Nc1nc2ccc(OC(F)(F)F)cc2s1)C(=O)CNC1COC1 [Example 234, N-Methyl-2-[(oxetan-3-yl)amino]-N-({[6-(trifluoromethoxy)-1,3-benzothiazol-2-yl]carbamoyl}methyl)acetamide]	3240	14.2	1.1	1.5	
Nc1nc2ccc(OC(F)(F)F)cc2s1 [riluzole]					Patients with clinical or radiologic evidence of tumor response ([3]; listed as Riluzole): four of 12; Patients with clinical or radiologic evidence of tumor response [3]: four of twelve
